Reference: patent US8435549B2, “Halogen alkoxy spirocyclic tetramic and tetronic acid derivatives” (Bayer Cropscience AG, priority 2007, dated 2013)

Tests used:
[1] = Determination of the log P values (LC/MS, HCOOH method); assay type: physicochemical; conditions: for log P: HPLC reversed-phase C18, HCOOH method; for chromatographic logP: reversed-phase C18 HPLC column, acidic range (pH 3.4)
Description: Determination of the Log P Values (LC/MS, HCOOH Method):
The log P values given in the tables were determined in accordance with EEC Directive 79/831 Annex V.A8 by HPLC (High Performance Liquid Chromatography) using a reversed-phase column (C 18). Temperature: 55° C.
Mobile phases for determination in the acidic range (pH 3.4):
Mobile phase A: acetonitrile+1 ml formic acid/liter. Mobile phase B: water+0.9 ml formic acid/liter. Gradient: from 10% mobile phase A/90% mobile phase B to 95% mobile phase A/5% mobile phase B over 4.25 min. Calibration was carried out using unbranched alkan-2-ones (having 3 to 16 carbon atoms) with known log P values (determination of the log P values by the retention times using linear interpolation between two successive alkanones). The lambda max values were determined in the maxima of the chromatographic signals using the UV spectra from 200 nm to 400 nm.

[2] = test system: crop plants; assay: Use of safeners: plant compatibility of test substances in crop plants; assay type: in vivo
Description: • Seeds of monocotyledonous and dicotyledonous weed and crop plants are placed in sandy loam in wood fiber pots, covered with soil and cultivated in a greenhouse under good growth conditions. 2 to 3 weeks after sowing, the test plants are treated at the one-leaf stage. The test compounds, formulated as wettable powders (WP) are then, with a water application rate of 600 l/ha (converted), with 0.2% of wetting agent added, sprayed at various dosages onto the green parts of the plants. After the test plants have been kept in the greenhouse under optimum growth conditions for about 3 weeks, the activity of the preparations is rated visually in comparison to untreated controls (herbicidal activity in percent: 100% activity=the plants have died, 0% activity=like control plants). • In addition to the compounds mentioned above, the following compounds show a post-emergence action of ≧80% against Echinocloa crus-galli, Lolium multiflorum and Setaria viridis at 80 g/ha: I-1-a-2, I-1-a-4, I-1-a-5, I-1-a-7, I-1-a-9, I-1-a-12, I-1-a-13, I-1-a-14, I-1-b-3.
Use of Safeners: • If it is additionally to be tested as to whether safeners can improve the plant compatibility of test substances in the case of crop plants, the following options are used for applying the safeners: • seeds of the crop plants are, before sowing, dressed with the safener substance (the amount of safener stated in percent, based on the weight of the seed) • before application of the test substances, the crop plants are sprayed with the safener at a certain application rate per hectare (usually 1 day before the application of the test substances) • the safener is applied together with the test substance as a tank mix (the amount of safener stated in g/ha or as a ratio, based on the herbicide).
• Application of the safener 1 day prior to the herbicide

[3] = test system: cotton aphid (Aphis gossypii); assay: Enhancement of activity by ammonium/phosphonium salts in combination with penetrants, Aphis gossypii test; assay type: in vivo
Description: To produce a suitable preparation of active compound, 1 part by weight of active compound is mixed with the stated amounts of solvent and emulsifier, and the concentrate is diluted with emulsifier-containing water to the desired concentration. For application with ammonium or phosphonium salts and penetrants (rapeseed oil methyl esters 500 EW) these are added to the spray liquor in each case in a concentration of 1000 ppm.
Cotton plants (Gossypium hirsutum) which are heavily infested by the cotton aphid (Aphis gossypii) are treated by spraying to runoff point with the active compound preparation of the desired concentration.
After the desired period of time, the kill in % is determined. 100% means that all the aphids have been killed; 0% means that none of the aphids have been killed.

[4] = compounds of formula (I-2-b), single isomer as labelled
[5] = α isomer of the α + β mixture, 55° C.
[6] = β isomer of the α + β mixture, 55° C.
[7] = single isomer isolated by preparative HPLC (formula I-2-a)

SMILES: Cc1ccc(-c2ccc(Cl)cc2)c(C)c1C1=C(OC(=O)C(C)C)C2(CCC(OCC(F)(F)F)CC2)OC1=O (centres unmarked) [Example I-2-b-12]
- log P [1, 4]: 5.83

SMILES: CCc1cc(C)cc(Br)c1C1=C(O)C2(CCC(OCC(F)(F)F)CC2)NC1=O (single isomer, unassigned) [Example I-1-a-7]
- 10 days after application Summer wheat observed (%) ([2]; 12.5 g a.i./ha): 40%
- 28 days after application Summer wheat observed (%) ([2]; 12.5 g a.i./ha): 10%
- 10 days after application Summer wheat observed (%) ([2]; 25 g a.i./ha): 50%
- 28 days after application Summer wheat observed (%) ([2]; 25 g a.i./ha): 20%
- 10 days after application Summer wheat observed (%) ([2]; 50 g a.i./ha): 60%
- 28 days after application Summer wheat observed (%) ([2]; 50 g a.i./ha): 30%
- 10 days after application Summer wheat observed (%) ([2]; 100 g a.i./ha): 60%
- 28 days after application Summer wheat observed (%) ([2]; 100 g a.i./ha): 40%

SMILES: COc1cc(C)cc(C)c1C1=C(O)C2(CCC(OCC(F)(F)F)CC2)OC1=O (mixture of isomers) [Example I-2-a-11]
- log P [1, 5]: α 3.07
- log P [1, 6]: β 2.94

SMILES: CCc1cc(C)cc(CC)c1C1=C(OC(=O)C(C)C)[C@]2(CC[C@H](OCC(F)(F)F)CC2)OC1=O [Example I-2-b-1]
- chromatographic logP ([1]; pH 3.4, HPLC): 5.69

SMILES: COc1cc(C)cc(C)c1C1=C(OC(=O)C(C)C)C2(CCC(OCC(F)(F)F)CC2)OC1=O (single isomer, unassigned) [I-2-b-19]
- log P [1, 4]: 4.72

SMILES: Cc1cc(C)c(C2=C(O)C3(CCC(OCC(F)(F)F)CC3)OC2=O)c(C)c1 (centres unmarked) [Example I-2-a-9]
- log P [1, 7]: 3.29

SMILES: CCc1cc(C)cc(C)c1C1=C(O)C2(CCC(OCC(F)(F)F)CC2)OC1=O (mixture of isomers) [Example I-2-a-5]
- log P [1, 5]: α 3.54
- log P [1, 6]: β 3.41

SMILES: Cc1ccc(-c2ccc(Cl)cc2)cc1C1=C(OC(=O)C(C)C)C2(CCC(OCC(F)(F)F)CC2)OC1=O (centres unmarked) [Example I-2-b-14]
- log P [1, 4]: 5.55

SMILES: COc1cc(C)cc(C)c1C1=C(OC(=O)C(C)C)C2(CCC(OCC(F)(F)F)CC2)OC1=O (single isomer, unassigned) [I-2-b-20]
- log P [1, 4]: 4.48

SMILES: Cc1cc(Cl)cc(C)c1C1=C(O)C2(CCC(OCC(F)(F)F)CC2)OC1=O (mixture of isomers) [Example I-2-a-8]
- log P [1, 5]: 3.39
- log P [1, 6]: 3.25

SMILES: Cc1cc(C)c(C2=C(O)C3(CCC(OCC(F)(F)F)CC3)OC2=O)c(C)c1 (mixture of isomers) [Example I-2-a-3]
- log P [1, 5]: α 3.31
- log P [1, 6]: β 3.18

SMILES: Cc1cc(C)c(C2=C(OC(=O)C(C)C)C3(CCC(OCC(F)(F)F)CC3)OC2=O)c(C)c1 (centres unmarked) [Example I-2-b-10]
- log P [1, 4]: 4.88

SMILES: Cc1cc(C)c(C2=C(OC(=O)C(C)C)[C@]3(CC[C@H](OCC(F)(F)F)CC3)OC2=O)c(C)c1 [Example I-2-b-9]
- log P [1, 4]: 5.14

SMILES: CCc1cc(-c2ccc(Cl)cc2)cc(C)c1C1=C(OC(=O)C(C)C)C2(CCC(OCC(F)(F)F)CC2)OC1=O (single isomer, unassigned) [I-2-b-17]
- log P [1, 4]: 6.33

SMILES: Cc1cc(C)c(C2=C(OC(=O)C(C)C)C3(CCC(OCC(F)(F)F)CC3)OC2=O)cc1C (centres unmarked) [Example I-2-b-8]
- log P [1, 4]: 4.87

SMILES: Cc1cc(C)c(C2=C(O)C3(CCC(OCC(F)(F)F)CC3)OC2=O)cc1C (mixture of isomers) [Example I-2-a-4]
- log P [1, 5]: α 3.34
- log P [1, 6]: β 3.20

SMILES: CCc1cc(-c2ccc(Cl)cc2)cc(C)c1C1=C(O)C2(CCC(OCC(F)(F)F)CC2)OC1=O (mixture of isomers) [Example I-2-a-12]
- log P [1, 5]: α 4.51
- log P [1, 6]: β 4.36

SMILES: Cc1ccc(C)c(C2=C(OC(=O)C(C)C)C3(CCC(OCC(F)(F)F)CC3)OC2=O)c1 (single isomer, unassigned) [Example I-2-b-6]
- log P [1, 4]: 4.62

SMILES: Cc1ccc(C)c(C2=C(O)C3(CCC(OCC(F)(F)F)CC3)OC2=O)c1 (mixture of isomers) [Example I-2-a-2]
- log P [1, 5]: α 3.10
- log P [1, 6]: β 2.95

SMILES: Cc1cc(Cl)cc(C)c1C1=C(OC(=O)C(C)C)C2(CCC(OCC(F)(F)F)CC2)OC1=O (single isomer, unassigned) [Example I-2-b-15]
- log P [1, 4]: 5.25

SMILES: Cc1ccc(-c2ccc(Cl)cc2)c(C)c1C1=C(OC(=O)C(C)C)[C@]2(CC[C@H](OCC(F)(F)F)CC2)OC1=O [Example I-2-b-11]
- log P [1, 4]: 6.11

SMILES: Cc1cc(C)c(C2=C(OC(=O)C(C)C)[C@]3(CC[C@H](OCC(F)(F)F)CC3)OC2=O)cc1C [Example I-2-b-7]
- log P [1, 4]: 5.14

SMILES: CCc1cc(C)cc(C)c1C1=C(OC(=O)C(C)C)[C@]2(CC[C@@H](OCC(F)(F)F)CC2)OC1=O [Example I-2-b-2]
- chromatographic logP ([1]; pH 3.4, HPLC): 5.4

SMILES: CCc1cc(C)cc(CC)c1C1=C(O)C2(CCC(OCC(F)(F)F)CC2)OC1=O (centres unmarked) [Example I-2-a-1]
- chromatographic logP ([1]; pH 3.4, α isomer of the isomer mixture, HPLC): 3.78
- chromatographic logP ([1]; pH 3.4, β isomer of the isomer mixture, HPLC): 3.64

SMILES: CCc1cc(C)cc(C)c1C1=C(OC(=O)C(C)C)[C@]2(CC[C@H](OCC(F)(F)F)CC2)OC1=O [Example I-2-b-3]
- log P [1, 4]: 5.44

SMILES: CCc1cc(C)cc(C)c1C1=C(OC(=O)C(C)C)C2(CCC(OCC(F)(F)F)CC2)OC1=O (centres unmarked) [Example I-2-b-4]
- log P [1, 4]: 5.15

SMILES: Cc1ccc(-c2ccc(Cl)cc2)c(C)c1C1=C(O)C2(CCC(OCC(F)(F)F)CC2)OC1=O (mixture of isomers) [Example I-2-a-6]
- log P [1, 5]: α 4.29
- log P [1, 6]: β 4.13

SMILES: CCc1cc(-c2ccc(Cl)cc2)cc(C)c1C1=C(OC(=O)C(C)C)C2(CCC(OCC(F)(F)F)CC2)OC1=O (single isomer, unassigned) [I-2-b-18]
- log P [1, 4]: 6.02

SMILES: Cc1ccc(-c2ccc(Cl)cc2)cc1C1=C(OC(=O)C(C)C)[C@]2(CC[C@H](OCC(F)(F)F)CC2)OC1=O [Example I-2-b-13]
- log P [1, 4]: 5.84

SMILES: Cc1cc(C)c(C2=C(O)C3(CCC(OCC(F)(F)F)CC3)OC2=O)c(C)c1 (centres unmarked) [Example I-2-a-10]
- log P [1, 7]: 3.16

SMILES: Cc1ccc(C)c(C2=C(OC(=O)C(C)C)C3(CCC(OCC(F)(F)F)CC3)OC2=O)c1 (single isomer, unassigned) [Example I-2-b-5]
- log P [1, 4]: 4.88

SMILES: Cc1cc(Cl)cc(C)c1C1=C(OC(=O)C(C)C)C2(CCC(OCC(F)(F)F)CC2)OC1=O (single isomer, unassigned) [Example I-2-b-16]
- log P [1, 4]: 4.97

SMILES: Cc1ccc(-c2ccc(F)cc2)c(C)c1C1=C(O)C2(CCC(OCC(F)(F)F)CC2)NC1=O (single isomer, unassigned) [Example I-1-a-3]
- Kill rate/% after 6 days ([3]; 4 ppm, +AS (1000 ppm)): 0%
- Kill rate/% after 6 days ([3]; 4 ppm, +RME (1000 ppm)): 5%
- Kill rate/% after 6 days ([3]; 4 ppm, +RME + AS (1000 ppm each)): 25%
- Kill rate/% after 6 days ([3]; 4 ppm, no additive): 0%
- Kill rate/% after 6 days ([3]; 20 ppm, +AS (1000 ppm)): 5%
- Kill rate/% after 6 days ([3]; 20 ppm, +RME (1000 ppm)): 10%
- Kill rate/% after 6 days ([3]; 20 ppm, +RME + AS (1000 ppm each)): 90%
- Kill rate/% after 6 days ([3]; 20 ppm, no additive): 25%
